The numbers were not newly measured in US20210283110A1, “COMPOUND FOR USE IN THE TREATMENT OF A DISEASE CHARACTERIZED BY DYSREGULATED MUCUS PRODUCTION AND/OR SECRETION” (UNIVERSITÄT REGENSBURG, priority 2018, published 2021), which cites them from elsewhere.

For the data set, the target named is T1, TMEM16A (Homo sapiens, UniProt Q5XXA6).
T1 sequence (Q5XXA6 1-986): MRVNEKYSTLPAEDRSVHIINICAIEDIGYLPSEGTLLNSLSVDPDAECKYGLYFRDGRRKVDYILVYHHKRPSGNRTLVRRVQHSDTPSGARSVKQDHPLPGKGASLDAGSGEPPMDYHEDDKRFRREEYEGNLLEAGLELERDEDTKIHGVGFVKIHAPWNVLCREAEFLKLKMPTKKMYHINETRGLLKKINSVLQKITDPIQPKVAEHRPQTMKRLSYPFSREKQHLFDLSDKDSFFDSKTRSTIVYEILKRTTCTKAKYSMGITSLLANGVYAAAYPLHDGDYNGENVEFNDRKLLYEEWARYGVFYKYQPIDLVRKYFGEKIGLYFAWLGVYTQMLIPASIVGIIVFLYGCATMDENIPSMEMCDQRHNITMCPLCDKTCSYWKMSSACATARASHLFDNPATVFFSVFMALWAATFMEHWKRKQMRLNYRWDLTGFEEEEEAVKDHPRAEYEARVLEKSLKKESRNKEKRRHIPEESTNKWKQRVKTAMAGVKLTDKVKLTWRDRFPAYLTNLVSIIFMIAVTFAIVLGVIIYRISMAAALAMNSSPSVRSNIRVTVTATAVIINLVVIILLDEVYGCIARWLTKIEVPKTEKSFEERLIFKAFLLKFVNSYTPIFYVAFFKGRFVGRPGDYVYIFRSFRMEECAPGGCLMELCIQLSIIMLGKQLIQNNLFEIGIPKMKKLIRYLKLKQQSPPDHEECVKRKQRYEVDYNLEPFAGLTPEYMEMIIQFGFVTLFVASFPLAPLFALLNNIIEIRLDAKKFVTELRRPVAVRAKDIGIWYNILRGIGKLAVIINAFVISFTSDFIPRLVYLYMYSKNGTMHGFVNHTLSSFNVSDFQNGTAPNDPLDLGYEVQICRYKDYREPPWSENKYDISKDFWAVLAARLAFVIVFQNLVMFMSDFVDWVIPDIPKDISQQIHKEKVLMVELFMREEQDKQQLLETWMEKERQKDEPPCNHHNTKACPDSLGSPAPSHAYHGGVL
On the set-up: expressed in transfected cells; host or cells: HEK293 cells. Conditions: Miner et al. [3]; cited from earlier work.

In the case of `O=C(Nc1ccc([N+](=O)[O-])cc1Cl)c1cc(Cl)ccc1O` [niclosamide, 5-chloro-N-(2-chloro-4-nitrophenyl)-2-hydroxybenzamide], the TMEM16A inhibition result was “inhibitors of TMEM16A”.
